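Each compound was tested at five concentrations against cells in 96-well plates for 48 hours. GI50 = concentration required for 50% inhibition of growth. The concentration for full growth arrest is given as TGI.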
Columns and labels:
Experiment in all cases: NCI anticancer screen, dose series, 48 h
786-0 renal = test system: 786-0 renal
A498 renal = test system: A498 renal
A549 NSCLC = test system: A549 NSCLC
ACHN renal = test system: ACHN renal
BT-549 breast = test system: BT-549 breast
CAKI-1 renal = test system: CAKI-1 renal
CCRF-CEM leukemia = test system: CCRF-CEM leukemia
COLO 205 colon = test system: COLO 205 colon
DU-145 prostate = test system: DU-145 prostate
EKVX NSCLC = test system: EKVX NSCLC
HCC-2998 colon = test system: HCC-2998 colon
HCT-116 colon = test system: HCT-116 colon
HCT-15 colon = test system: HCT-15 colon
HL-60(TB) leukemia = test system: HL-60(TB) leukemia
HOP-62 NSCLC = test system: HOP-62 NSCLC
HOP-92 NSCLC = test system: HOP-92 NSCLC
HS 578T breast = test system: HS 578T breast
HT29 colon = test system: HT29 colon
IGROV1 ovarian = test system: IGROV1 ovarian
K-562 leukemia = test system: K-562 leukemia
KM12 colon = test system: KM12 colon
LOX IMVI melanoma = test system: LOX IMVI melanoma
M14 melanoma = test system: M14 melanoma
MALME-3M melanoma = test system: MALME-3M melanoma
MCF7 breast = test system: MCF7 breast
MDA-MB-231 breast = test system: MDA-MB-231 breast
MDA-MB-435 = test system: MDA-MB-435
MOLT-4 leukemia = test system: MOLT-4 leukemia
NCI-H226 lung = test system: NCI-H226 lung
NCI-H23 lung = test system: NCI-H23 lung
NCI-H460 lung = test system: NCI-H460 lung
NCI-H522 lung = test system: NCI-H522 lung
NCI/ADR-RES ovarian = test system: NCI/ADR-RES ovarian
OVCAR-3 ovarian = test system: OVCAR-3 ovarian
OVCAR-4 ovarian = test system: OVCAR-4 ovarian
OVCAR-5 ovarian = test system: OVCAR-5 ovarian
OVCAR-8 ovarian = test system: OVCAR-8 ovarian
RPMI-8226 leukemia = test system: RPMI-8226 leukemia
RXF 393 renal = test system: RXF 393 renal
SF-268 CNS = test system: SF-268 CNS
SF-295 CNS = test system: SF-295 CNS
SF-539 CNS = test system: SF-539 CNS
SK-MEL-2 melanoma = test system: SK-MEL-2 melanoma
SK-MEL-28 melanoma = test system: SK-MEL-28 melanoma
SK-MEL-5 melanoma = test system: SK-MEL-5 melanoma
SK-OV-3 ovarian = test system: SK-OV-3 ovarian
SN12C renal = test system: SN12C renal
SNB-19 CNS = test system: SNB-19 CNS
SNB-75 CNS = test system: SNB-75 CNS
SR leukemia = test system: SR leukemia
T-47D breast = test system: T-47D breast
TK-10 renal = test system: TK-10 renal
U251 CNS = test system: U251 CNS
UACC-257 melanoma = test system: UACC-257 melanoma
UACC-62 melanoma = test system: UACC-62 melanoma
UO-31 renal = test system: UO-31 renal

C=C(C)[C@@H]1CC[C@]2(C(=O)O)CC[C@]3(C)[C@H](CC[C@@H]4[C@@]5(C)CCC(NC(=O)c6cccc(OC(C)=O)c6OC(C)=O)C(C)(C)[C@@H]5CC[C@]43C)[C@@H]12 (some centres not stated)
GI50 (786-0 renal): 661 nM | TGI (786-0 renal): 3470 nM | GI50 (A498 renal): 644 nM | TGI (A498 renal): 1970 nM | GI50 (A549 NSCLC): 409 nM | TGI (A549 NSCLC): 2470 nM | GI50 (ACHN renal): 323 nM | TGI (ACHN renal): 2610 nM | GI50 (BT-549 breast): 1180 nM | TGI (BT-549 breast): 3670 nM | GI50 (CAKI-1 renal): 371 nM | TGI (CAKI-1 renal): 2240 nM | GI50 (CCRF-CEM leukemia): 585 nM | TGI (CCRF-CEM leukemia): 18900 nM | GI50 (COLO 205 colon): 345 nM | TGI (COLO 205 colon): 1900 nM | GI50 (DU-145 prostate): 882 nM | TGI (DU-145 prostate): > 100000 nM | GI50 (EKVX NSCLC): 918 nM | TGI (EKVX NSCLC): > 100000 nM | GI50 (HCC-2998 colon): 1570 nM | TGI (HCC-2998 colon): 4510 nM | GI50 (HCT-116 colon): 376 nM | TGI (HCT-116 colon): 1540 nM | GI50 (HCT-15 colon): 418 nM | TGI (HCT-15 colon): 3730 nM | GI50 (HL-60(TB) leukemia): 1270 nM | TGI (HL-60(TB) leukemia): 4520 nM | GI50 (HOP-62 NSCLC): 785 nM | TGI (HOP-62 NSCLC): 3300 nM | GI50 (HOP-92 NSCLC): 439 nM | TGI (HOP-92 NSCLC): 2250 nM | GI50 (HS 578T breast): 566 nM | TGI (HS 578T breast): 4280 nM | GI50 (HT29 colon): 806 nM | TGI (HT29 colon): 3140 nM | GI50 (IGROV1 ovarian): 604 nM | TGI (IGROV1 ovarian): 5340 nM | GI50 (K-562 leukemia): 332 nM | TGI (K-562 leukemia): > 45700 nM | GI50 (KM12 colon): 651 nM | TGI (KM12 colon): 3460 nM | GI50 (LOX IMVI melanoma): 488 nM | TGI (LOX IMVI melanoma): 1740 nM | GI50 (M14 melanoma): 399 nM | TGI (M14 melanoma): 2250 nM | GI50 (MALME-3M melanoma): 317 nM | TGI (MALME-3M melanoma): 1470 nM | GI50 (MCF7 breast): 586 nM | TGI (MCF7 breast): 6420 nM | GI50 (MDA-MB-231 breast): 1090 nM | TGI (MDA-MB-231 breast): 3880 nM | GI50 (MDA-MB-435): 382 nM | TGI (MDA-MB-435): 1610 nM | GI50 (MOLT-4 leukemia): 497 nM | TGI (MOLT-4 leukemia): 2850 nM | GI50 (NCI-H226 lung): 1690 nM | TGI (NCI-H226 lung): 4590 nM | GI50 (NCI-H23 lung): 615 nM | TGI (NCI-H23 lung): 4620 nM | GI50 (NCI-H460 lung): 380 nM | TGI (NCI-H460 lung): 1420 nM | GI50 (NCI-H522 lung): 371 nM | TGI (NCI-H522 lung): 1620 nM | GI50 (NCI/ADR-RES ovarian): 817 nM | TGI (NCI/ADR-RES ovarian): 6430 nM | GI50 (OVCAR-3 ovarian): 1040 nM | TGI (OVCAR-3 ovarian): 3260 nM | GI50 (OVCAR-4 ovarian): 507 nM | TGI (OVCAR-4 ovarian): > 100000 nM | GI50 (OVCAR-5 ovarian): 1920 nM | TGI (OVCAR-5 ovarian): > 27300 nM | GI50 (OVCAR-8 ovarian): 996 nM | TGI (OVCAR-8 ovarian): 3240 nM | GI50 (RPMI-8226 leukemia): 697 nM | TGI (RPMI-8226 leukemia): 4440 nM | GI50 (RXF 393 renal): 1000 nM | TGI (RXF 393 renal): 3120 nM | GI50 (SF-268 CNS): 780 nM | TGI (SF-268 CNS): 11900 nM | GI50 (SF-295 CNS): 562 nM | TGI (SF-295 CNS): 3890 nM | GI50 (SF-539 CNS): 576 nM | TGI (SF-539 CNS): 2500 nM | GI50 (SK-MEL-2 melanoma): 981 nM | TGI (SK-MEL-2 melanoma): 4020 nM | GI50 (SK-MEL-28 melanoma): 460 nM | TGI (SK-MEL-28 melanoma): 3030 nM | GI50 (SK-MEL-5 melanoma): 480 nM | TGI (SK-MEL-5 melanoma): 1670 nM | GI50 (SK-OV-3 ovarian): 1890 nM | TGI (SK-OV-3 ovarian): > 20400 nM | GI50 (SN12C renal): 940 nM | TGI (SN12C renal): > 100000 nM | GI50 (SNB-19 CNS): 832 nM | TGI (SNB-19 CNS): 25700 nM | GI50 (SNB-75 CNS): 452 nM | TGI (SNB-75 CNS): 5440 nM | GI50 (SR leukemia): 568 nM | TGI (SR leukemia): 3140 nM | GI50 (T-47D breast): 628 nM | TGI (T-47D breast): > 100000 nM | GI50 (TK-10 renal): 656 nM | TGI (TK-10 renal): > 100000 nM | GI50 (U251 CNS): 520 nM | TGI (U251 CNS): 14500 nM | GI50 (UACC-257 melanoma): 209 nM | TGI (UACC-257 melanoma): 780 nM | GI50 (UACC-62 melanoma): 209 nM | TGI (UACC-62 melanoma): 618 nM | GI50 (UO-31 renal): 283 nM | TGI (UO-31 renal): 1430 nM

— PubChem BioAssay (NCI)
